# Laboratory results reported in a melting point compilation (Tetko et al.; mined from patent text by program, amines drawn as free bases though some values may be those of a salt).
row,Compound,melting point [°C]
1,CCOC(=O)C1=C(CS(=O)CCN)NC(C)=C(C(=O)OC)C1c1cccc([N+](=O)[O-])c1 (configuration not stated),170 to 172
2,COCc1ncnc(Cl)c1C,37 to 38
3,CC1(C)Cc2ccc(F)cc2C=[N+]1[O-],88 to 90
4,O=c1c2cc(F)c(N3CCCC3)cc2n(CC2CC2)c(=O)n1O,211 to 213
5,CCCCC(Cc1ccc(OCCN(CC)CC)cc1)(C(=O)O)S(=O)(=O)c1ccc(OC)cc1 (configuration not stated),67
6,C=CC(=O)Nc1cccc(-c2ccnc3c(C(=O)c4cccs4)cnn23)c1,192 to 194
7,CC(C)CCN1C(=O)C(NC(=O)Oc2cccc(N(C)C)c2)C(=O)N(CC23CC4CC(CC(C4)C2)C3)c2ccccc21 (configuration not stated),172 to 173
8,NS(=O)(=O)c1ccccc1Cn1cncn1,128 to 131
9,Cn1cnc2c([N+](=O)[O-])cc(Br)cc21,198
10,CCc1cccc2c1C(=O)C(=S)N2,171 to 172
11,CCS(=O)(=O)c1nsc(NC(=O)NC)c1C#N,258
12,COC(=O)c1cc(C)cc(OC)c1C1=C(OC)C(=O)c2c(OC(C)=O)cccc2C1=O,127 to 128
13,CC(C)(CO)NS(=O)(=O)c1cc([N+](=O)[O-])c(Cl)s1,113
14,COC(=O)C1=C(C)NC(C)=C(C(=O)OCCCl)C1c1cccc(Br)n1 (configuration not stated),152 to 153
15,Cc1nn2c(-c3ccncc3)ccnc2c1C#N,220 to 221
16,CCCCc1c(/C=C/C(=O)O)cc(OC)c2ccc(OC)cc12,174 to 176
17,COC(=O)C[C@]1(C)[C@@H](O)CC[C@H]1C1CCc2cc(OC)ccc2C1 (some centres not stated),86 to 87
18,COc1ccc2c(c1)Sc1nccnc1N2,210 to 211
19,Oc1cccc2c1CC(N1CCN(c3ncccn3)CC1)CC2 (configuration not stated),> 300
20,Clc1ccc2c(c1)N=C(N1CCNCC1)c1nccn1C2,120 to 123
21,CN(Cc1ccccc1)c1ncnc2c(N3CCOCC3)nc(N3CCC(N(C)C)CC3)nc12,98
22,Cc1ccc(O[C@H]2CCN(C)C[C@H]2O)cc1C (relative stereo),127 to 129
23,COc1cc(C(=O)N(C(C)C)C2CCCCC2)ccc1Br,104 to 107
24,CC12CCC3C(CCC4=CC(=O)C=C(CO)C43C)C1CCC2=O (configuration not stated),201 to 202

row,Compound,melting point [°C]
1,COCCNC(=O)c1ccc(C(=O)NS(=O)(=O)c2ccc(CCNC(=O)CCC(C)C)cc2)cn1,154 to 157
2,CC(NC(=O)OC(C)(C)C)C1CCN(c2c(F)cc3c(=O)[nH]c(=O)n4c3c2CCC4C)C1 (configuration not stated),123 to 125
3,CC(Cc1c[nH]c2ccccc12)(NC(=O)OC1C2CC3CC(C2)CC1C3)C(=O)NCCC1=CCCCC1 (configuration not stated),77 to 79
4,CN1C(=O)CN=C(c2ccccc2F)c2cc(NC(=O)N(CCOC(C)(C)C)Cc3ccccc3)ccc21,82 to 86
5,CC(C)OC(=O)N1CCN(c2ccn3ncc(-c4cccn(C)c4=O)c3n2)CC1,206 to 207
6,Cc1nc(F)c(S(C)(=O)=O)c(F)n1,120 to 123
7,CCCn1c(=O)c([N+](=O)[O-])c2n(c1=O)CCS2,189 to 191
8,CCC(=O)N(C)c1nc(Cl)c([N+](=O)[O-])s1,132 to 133
9,O=c1cc(C(F)(F)F)[nH]c(=O)n1Cc1cc(Cl)cc(Cl)c1Cl,199 to 202
10,CCOC(=O)/C=C(C)/C(F)=C/C=C(C)/C=C/c1c(Cl)cc(OC)c(C)c1Cl,127 to 132
11,OCc1nccc(N2CCCC2)c1Cl,85 to 86
12,N#CC1(N2C(=O)c3cccc(Cl)c3C2=O)CCCCC1,115 to 116
13,O=C(NC(CO)CO)c1ccc2cc(C(=O)O)[nH]c2c1,240 to 245
14,CCCSc1ccc(C(=O)C(=O)OCC)[nH]1,34
15,COc1cc(CCCCC2OC(=O)NC2=O)ccc1O (configuration not stated),115 to 116
16,CC12CCC(=O)C=C1CCC1C2CCC2(C)C(CO)CCC12 (configuration not stated),151
17,C=CCNC(=S)C(OC)c1ccccn1 (configuration not stated),59.5 to 60
18,CCOc1c(C=NOC)c(=O)n(C)c(=O)n1C,108 to 109
19,COc1cc2c(cc1OC)CN(c1nc(N)c3cc(OC)c(OC)cc3n1)C2,264 to 266
20,O=[N+]([O-])c1ccc(-c2nnc3ccc(N=CCN4CCCCC4)nn23)o1,207 to 209
21,N#Cc1cc(F)c(N=c2snc3n2CCCC3)cc1F,137
22,COc1cc(C(=O)CS(C)=O)c(N)c(OC)c1OC (configuration not stated),102 to 104
23,N#Cc1ccc2c(c1)CCC1CC(=O)NN=C21 (configuration not stated),292 to 295

# Results, then the compound that gave them:
row,melting point [°C],Compound
1,150 to 184,CCNC(=O)c1ccccc1Nc1nc(Nc2ccc3c(c2)CCN(CCOC)CC3)ncc1Cl
2,239 to 241,O=C1Nc2ccccc2SC(c2ccccc2)=C1Cl
3,176 to 177,Cc1cc(-c2ccc(C#N)cc2)sc1C(=O)N[C@H](C)[C@](O)(Cn1cncn1)c1ccc(F)cc1F
4,77 to 78,COC(=O)CCc1ccc(C(=O)Cc2ccccc2)cc1
5,173 to 174,COC(=O)c1cc(COc2nn(-c3ccccc3)cc2C=O)ccc1OCc1nc(-c2ccco2)oc1C
6,198 to 200,COc1cc(-c2nc3ccccc3[nH]2)cc([N+](=O)[O-])c1O
7,77,CC(C)c1nc(-c2c(F)c(F)cc(F)c2F)cc(-c2ccc(F)cc2)c1C=C(Br)Br
8,139 to 140,O=C1Cc2cc(Oc3ccccc3Cl)ccc2N1
9,94 to 95,OCCCc1cnoc1-c1ccc(-c2ccccc2)cc1
10,115 to 118,Nc1ccc2nc3n(c2c1)CC(C(=O)OCc1ccccc1)NC3 (configuration not stated)
11,242 to 244,Clc1ccc2c(c1)C(c1ccccc1)Nc1nncn1-2 (configuration not stated)
12,156 to 158,O=C(O)c1ccc(OC2=C3N=C4CCCCC4=C3C(Cc3ccc(Br)cc3)C=C2)o1 (configuration not stated)
13,260,O=C(O)C(=O)c1ccc(OCCOc2ccc3ccncc3c2)cc1
14,115 to 119,Cc1ccccc1C(=O)Nc1ccc(C(=O)N2Cc3ccccc3C(=O)c3ccccc32)cc1
15,114 to 115,Cc1oc(-c2ccccc2)nc1COc1ccc2cc(CCCCc3nnn[nH]3)oc2c1
16,281 to 283,O=c1cc(-c2ccccc2Cl)[nH]c(=O)n1-c1ccc(C(F)(F)F)cn1
17,120 to 122,Cc1nc2c(OCc3c(Cl)ccc(N(C)C)c3Cl)cccn2c1Br
18,154 to 155,O=C(O)c1cnn(-c2ccc(Cl)cc2Cl)c1C(F)(F)F
19,244 to 245,Nc1c(-c2ccc(-c3ccccc3)cc2)nc2ccc(Cl)cc2c1C(=O)O
20,101 to 104,CC(C)(C)OC(=O)NC(Cc1ccc(OCc2ccccc2)cc1)C(=O)NCC(=O)OCc1ccccc1 (configuration not stated)
21,76 to 77,C=CCc1cc(-c2ccc(F)cc2)cc(C(=O)OC)c1O
22,280 to 281,Oc1cc(-c2ccccc2)nc2nn(-c3ccccc3)cc12
23,166 to 168,CC(=O)Nc1nc(C)c(CCN2CCN(C(c3ccccc3)c3ccccc3)CC2)s1
24,130,CCOC(=O)C1=C(c2ccc(OC)c(OC)c2)c2ccccc2C1=O
25,211 to 213,O=C1CCC(N2Cc3c(OCc4cccc(CN5CCC(c6ccc(F)cc6F)CC5)c4)cccc3C2=O)C(=O)N1 (configuration not stated)
26,234,Nc1nc(Nc2cccc(Br)c2)c2c(n1)[nH]c1ccccc12
27,140 to 141,Cc1cc(-n2ccc(OCc3ccccc3)cc2=O)sc1C(=O)NCc1cccc(F)c1
28,141 to 142,CCOC(=O)[C@H](Cc1ccc(O)cc1)NC(=O)c1c(Cl)cccc1Cl

row,melting point [°C],Compound
1,129 to 131,OC(CCCN1CCN(c2ncc(F)cn2)CC1)c1ccc(F)c2ccccc12 (configuration not stated)
2,106 to 107,C=CC(=O)c1cn(C)c2ccccc12
3,176 to 177,Cn1ncc(C(=O)Nc2ccc(F)cc2Cl)c1N
4,91.5 to 93.5,COC1C=C(C)C(=O)CC(C)(C)C1OC(=O)c1ccccc1 (configuration not stated)
5,198 to 200,Cc1oc(-c2ccccc2)nc1CCC(=O)c1ccc(CC2OC(=O)NC2=O)cc1 (configuration not stated)
6,144 to 145,CNc1scc(C)c1C(=O)c1ccccc1
7,187 to 189,CC(=O)SCC(Cc1ccccc1)C(=O)Nc1ccc(C(=O)O)cc1 (configuration not stated)
8,162 to 163,Cn1cc(C(=O)NCc2ccc(Cl)cc2)c(=O)c2cc(CN3CC4CC3CO4)ccc21 (configuration not stated)
9,187 to 188,COc1ccc(S(=O)(=O)Nc2ccc(OC)nc2Nc2ccccc2)cc1
10,205 to 208,O=C1Nc2ccc(Cl)cc2C1(O)c1ccccc1C(F)(F)F (configuration not stated)
11,235,NS(=O)(=O)c1ccc(-n2c(-c3ccccc3)csc2=S)cc1
12,187 to 188,OC1CCCc2nc3cc(Cl)ccc3c(NCc3ccc(F)cc3)c21 (configuration not stated)
13,39,OC[C@@H](O)c1ccccc1Cl
14,36 to 38,CCCCC(C)C(C=Cc1ccc(OCc2ccccc2)c(OCc2ccccc2)c1)OC (configuration not stated)
15,175 to 176,CC(C)(C)c1ccc(/C=C/C(=O)Nc2ccc3c(c2)CCO3)cc1
16,93 to 94,N#CCCCCCCCn1c(-c2ccccc2)nc(-c2ccccc2)c1-c1ccccc1
17,104 to 109,O=C(O)/C=C/c1cccc(OCCC(c2ccccc2)(c2ccccc2)c2ccccc2)c1
18,227 to 230,CC(=O)N(C)c1ccnc2c(NC(=O)c3c(Cl)cccc3Cl)cccc12
19,109 to 111,Oc1ccc(C(c2ccc(O)cc2)c2cccc3ccccc23)cc1
20,202 to 204,N#Cc1cnn2c(-c3cc(Cl)ccc3Cl)ccnc12
21,48 to 50,CCOC(=O)c1c(S(=O)(=O)c2ccccc2)cc(C(F)(F)F)nc1C(F)(F)F
22,150 to 151,CCC(N)(CO)CS(=O)(=O)c1ccccc1C(=O)c1ccccc1 (configuration not stated)
23,96 to 98,CC(C)(C)CC(C)(C)NC(=O)CCON(Cc1ccccc1)Cc1ccccc1
24,195 to 197,Cc1c(/C=C/C(=O)N(C)C)ncn1C(c1ccccc1)(c1ccccc1)c1ccccc1
25,174 to 175,CNC(=O)c1cccc(NC(=O)Cc2ccc(C)cc2)c1
26,217 to 220,COc1cc2ncc(CO)c(-c3ccnc(NN)c3)c2cc1OC
27,189 to 190,CC1(C)Oc2ccc(OC(F)(F)F)cc2[C@@H](NC(=O)c2ccccc2[N+](=O)[O-])[C@@H]1O
